Results: PubChem BioAssay AID2060489 (Molecular Pharmacology Branch, DTP, NCI, 2025)

Tested on: 922993-354-T-J3-PDC complex spheroids, viability
Experiment: Anticancer human tumor 922993-354-T-J3-PDC patient-derived endometrial carcinoma cell line growth inhibition [GQUAD]
Conditions: for IC50: curve of first compound; for viability, T/C: stronger effect = lower value; active = viability on the fitted dose curve at most 10% of control; inactive = the rest
Method in brief: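 Viability of tumor cells grown as complex spheroids with endothelial and stromal cells, exposed to drug combinations. Top concentration at or near clinical Cmax (else 10 microM), diluted in half-log increments.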

[1] = second compound 0.0316 µM, first compound 0.0316 µM
[2] = second compound 0.0316 µM, first compound 0.1 µM
[3] = second compound 0.0316 µM, first compound 0.316 µM
[4] = second compound 0.0316 µM, first compound 1 µM
[5] = second compound 0.0316 µM, first compound 3.16 µM
[6] = second compound 0.0316 µM, first compound 10 µM
[7] = second compound 0.1 µM, first compound 0.0316 µM
[8] = second compound 0.1 µM, first compound 0.1 µM
[9] = second compound 0.1 µM, first compound 0.316 µM
[10] = second compound 0.1 µM, first compound 1 µM
[11] = second compound 0.1 µM, first compound 3.16 µM
[12] = second compound 0.1 µM, first compound 10 µM
[13] = second compound 0.316 µM, first compound 0.0316 µM
[14] = second compound 0.316 µM, first compound 0.1 µM
[15] = second compound 0.316 µM, first compound 0.316 µM
[16] = second compound 0.316 µM, first compound 1 µM
[17] = second compound 0.316 µM, first compound 3.16 µM
[18] = second compound 0.316 µM, first compound 10 µM
[19] = second compound 1 µM, first compound 0.0316 µM
[20] = second compound 1 µM, first compound 0.1 µM
[21] = second compound 1 µM, first compound 0.316 µM
[22] = second compound 1 µM, first compound 1 µM
[23] = second compound 1 µM, first compound 3.16 µM
[24] = second compound 1 µM, first compound 10 µM
[25] = second compound 3.16 µM, first compound 0.0316 µM
[26] = second compound 3.16 µM, first compound 0.1 µM
[27] = second compound 3.16 µM, first compound 0.316 µM
[28] = second compound 3.16 µM, first compound 1 µM
[29] = second compound 3.16 µM, first compound 3.16 µM
[30] = second compound 3.16 µM, first compound 10 µM
[31] = second compound 10 µM, first compound 0.0316 µM
[32] = second compound 10 µM, first compound 0.1 µM
[33] = second compound 10 µM, first compound 0.316 µM
[34] = second compound 10 µM, first compound 1 µM
[35] = second compound 10 µM, first compound 3.16 µM
[36] = second compound 10 µM, first compound 10 µM
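Note: spheroids exposed to compounds for seven days.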
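Throughout, for viability, T/C: 100% = DMSO vehicle control viability.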

Nc1ccn(C2OC(CO)C(O)C2(F)F)c(=O)n1 (stereo unspecified) + Cc1cnc(CNC(=O)c2c(=O)c3ccc(N4CCCN(C)CC4)nc3n3c2sc2ccccc23)cn1
< 31.6 nM: IC50 (second compound 0.0316 µM) | IC50 (second compound 0.1 µM) | IC50 (second compound 0.316 µM) | IC50 (second compound 1 µM) | IC50 (second compound 3.16 µM) | IC50 (second compound 10 µM)
inactive: viability, T/C [1] 29.4% | viability, T/C [2] 28.8% | viability, T/C [3] 23.6% | viability, T/C [4] 21.1% | viability, T/C [5] 23.4% | viability, T/C [6] 21.7% | viability, T/C [7] 26.3% | viability, T/C [8] 23.9% | viability, T/C [9] 29.4% | viability, T/C [10] 21.7% | viability, T/C [11] 25.2% | viability, T/C [12] 27.2% | viability, T/C [13] 34.3% | viability, T/C [14] 34.5% | viability, T/C [15] 30.5% | viability, T/C [16] 30.3% | viability, T/C [17] 31.5% | viability, T/C [18] 27.8% | viability, T/C [19] 38.1% | viability, T/C [20] 50.9% | viability, T/C [21] 54.8% | viability, T/C [22] 34.6% | viability, T/C [23] 46.1% | viability, T/C [24] 39.4% | viability, T/C [25] 39.6% | viability, T/C [26] 45% | viability, T/C [27] 48.3% | viability, T/C [28] 38% | viability, T/C [29] 56.3% | viability, T/C [30] 41.8% | viability, T/C [31] 45.1% | viability, T/C [32] 33.5% | viability, T/C [33] 44.8% | viability, T/C [34] 41.2% | viability, T/C [35] 39.2% | viability, T/C [36] 33.4%

O=C(NO)c1cnc(N2CCN(S(=O)(=O)c3ccc4ccccc4c3)CC2)nc1 + Cc1cnc(CNC(=O)c2c(=O)c3ccc(N4CCCN(C)CC4)nc3n3c2sc2ccccc23)cn1
< 31.6 nM: IC50 (second compound 0.316 µM) | IC50 (second compound 1 µM) | IC50 (second compound 3.16 µM) | IC50 (second compound 10 µM)
active: viability, T/C [5] 5.35% | viability, T/C [6] 0.97% | viability, T/C [11] 8.63% | viability, T/C [12] 1.81% | viability, T/C [18] 2.24% | viability, T/C [23] 5.24% | viability, T/C [24] 0.22% | viability, T/C [28] 4.62% | viability, T/C [29] 0.18% | viability, T/C [30] 0.17% | viability, T/C [34] 0.2% | viability, T/C [35] 0.21% | viability, T/C [36] 0.22%
482 nM: IC50 (second compound 0.0316 µM)
84.6 nM: IC50 (second compound 0.1 µM)
inactive: viability, T/C [1] 80.3% | viability, T/C [2] 85% | viability, T/C [3] 59.2% | viability, T/C [4] 30.6% | viability, T/C [7] 63.8% | viability, T/C [8] 47.5% | viability, T/C [9] 32.4% | viability, T/C [10] 20.5% | viability, T/C [13] 46.4% | viability, T/C [14] 32% | viability, T/C [15] 36.2% | viability, T/C [16] 21.2% | viability, T/C [17] 11.2% | viability, T/C [19] 44.3% | viability, T/C [20] 45.7% | viability, T/C [21] 28.4% | viability, T/C [22] 12.4% | viability, T/C [25] 42% | viability, T/C [26] 36.8% | viability, T/C [27] 24.9% | viability, T/C [31] 38.7% | viability, T/C [32] 25% | viability, T/C [33] 14.2%

O=c1[nH]cc(F)c(=O)[nH]1 + Cc1cnc(CNC(=O)c2c(=O)c3ccc(N4CCCN(C)CC4)nc3n3c2sc2ccccc23)cn1
inactive: viability, T/C [1] 85.8% | viability, T/C [2] 69.8% | viability, T/C [3] 79.3% | viability, T/C [4] 96.3% | viability, T/C [5] 82.1% | viability, T/C [6] 57.4% | viability, T/C [7] 65.7% | viability, T/C [8] 49.3% | viability, T/C [9] 49.7% | viability, T/C [10] 61.5% | viability, T/C [11] 63.1% | viability, T/C [12] 60.1% | viability, T/C [13] 50.6% | viability, T/C [14] 47.1% | viability, T/C [15] 45.5% | viability, T/C [16] 42.8% | viability, T/C [17] 48.7% | viability, T/C [18] 49.3% | viability, T/C [19] 54.1% | viability, T/C [20] 38.2% | viability, T/C [21] 40.8% | viability, T/C [22] 42.6% | viability, T/C [23] 50% | viability, T/C [24] 44.9% | viability, T/C [25] 46% | viability, T/C [26] 50.6% | viability, T/C [27] 43.3% | viability, T/C [28] 53.6% | viability, T/C [29] 51.5% | viability, T/C [30] 46.4% | viability, T/C [31] 44.2% | viability, T/C [32] 44% | viability, T/C [33] 43.7% | viability, T/C [34] 37.2% | viability, T/C [35] 47.4% | viability, T/C [36] 46.1%
> 10000 nM: IC50 (second compound 0.0316 µM) | IC50 (second compound 0.1 µM)
< 31.6 nM: IC50 (second compound 0.316 µM) | IC50 (second compound 1 µM) | IC50 (second compound 3.16 µM) | IC50 (second compound 10 µM)
